# US11053204B2, “Pyrimidinyloxy benzene derivatives as herbicides” (FMC Corporation, priority 2015, dated 2021)
# How the values were obtained:
# Type in all cases: in vivo
# [1] = tested on: ducksalad (Heteranthera limosa); assay: Test B flooded paddy test, plant response rating; settings: 250 g ai/ha; Flood; scale of 0 to 100 where 0 is no effect and 100 is complete control; 13 to 15 days
# How it was run: (§1)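 Test compounds are applied straight into paddy water held 3 cm above the soil surface, with that flood maintained for the whole test. After 13 to 15 days in the greenhouse, each species is scored visually relative to controls.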
# [2] = tested on: rice (Oryza sativa); assay: Test B flooded paddy test, plant response rating; settings: 250 g ai/ha; Flood; scale of 0 to 100 where 0 is no effect and 100 is complete control; 13 to 15 days
# How it was run: as §1
# [3] = tested on: barnyardgrass (Echinochloa crus-galli); assay: Test B flooded paddy test, plant response rating; settings: 250 g ai/ha; Flood; scale of 0 to 100 where 0 is no effect and 100 is complete control; 13 to 15 days
# How it was run: as §1
# [4] = tested on: sedge, umbrella (small-flower umbrella sedge, Cyperus difformis); assay: Test B flooded paddy test, plant response rating; settings: 250 g ai/ha; Flood; scale of 0 to 100 where 0 is no effect and 100 is complete control; 13 to 15 days
# How it was run: as §1
# [5] = tested on: kochia (Kochia scoparia); assay: Test A preemergence, visual injury rating; settings: for Kochia plant response rating: 0 to 100 scale (0 no effect, 100 complete control)
# How it was run: (§2)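 Visual injury scored 0–100 (100 = complete control) against untreated controls about 10 days after treatment in a greenhouse. Test chemicals, formulated with surfactant in non-phytotoxic solvent, were sprayed on soil preemergence or on 2-10 cm, one- to two-leaf plants postemergence.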
# [6] = tested on: pigweed (Amaranthus retroflexus); assay: Test A preemergence, visual injury rating; settings: for Pigweed plant response rating: 0 to 100 scale (0 no effect, 100 complete control)
# How it was run: as §2
# [7] = tested on: giant foxtail (Setaria faberii); assay: Test A preemergence, visual injury rating; settings: for Foxtail, Giant plant response rating: 0 to 100 scale (0 no effect, 100 complete control)
# How it was run: as §2
# [8] = tested on: barnyardgrass (Echinochloa crus-galli); assay: Test A preemergence, visual injury rating; settings: for Barnyardgrass plant response rating: 0 to 100 scale (0 no effect, 100 complete control)
# How it was run: as §2
# [9] = tested on: ragweed (common ragweed, Ambrosia elatior); assay: Test A preemergence, visual injury rating; settings: for Ragweed plant response rating: 0 to 100 scale (0 no effect, 100 complete control)
# How it was run: as §2
# [10] = tested on: Italian ryegrass (Lolium multiflorum); assay: Test A preemergence, visual injury rating; settings: for Ryegrass, Italian plant response rating: 0 to 100 scale (0 no effect, 100 complete control)
# How it was run: as §2
# [11] = tested on: kochia (Kochia scoparia); assay: Test A postemergence, visual injury rating; settings: 0 is no effect, 100 is complete control
# How it was run: as §2
# [12] = tested on: pigweed (Amaranthus retroflexus); assay: Test A postemergence, visual injury rating; settings: 0 is no effect, 100 is complete control
# How it was run: as §2
# [13] = tested on: galium (catchweed bedstraw, Galium aparine); assay: Test A postemergence, visual injury rating; settings: 0 is no effect, 100 is complete control
# How it was run: as §2
# [14] = tested on: blackgrass (Alopecurus myosuroides); assay: Test A postemergence, visual injury rating; settings: 0 is no effect, 100 is complete control
# How it was run: as §2
# [15] = tested on: giant foxtail (Setaria faberii); assay: Test A postemergence, visual injury rating; settings: 0 is no effect, 100 is complete control
# How it was run: as §2
# [16] = tested on: barnyardgrass (Echinochloa crus-galli); assay: Test A postemergence, visual injury rating; settings: 0 is no effect, 100 is complete control
# How it was run: as §2
# [17] = tested on: wheat (Triticum aestivum); assay: Test A postemergence, visual injury rating; settings: 0 is no effect, 100 is complete control
# How it was run: as §2
# [18] = tested on: ragweed (common ragweed, Ambrosia elatior); assay: Test A postemergence, visual injury rating; settings: 0 is no effect, 100 is complete control
# How it was run: as §2
# [19] = tested on: corn (Zea mays); assay: Test A postemergence, visual injury rating; settings: 0 is no effect, 100 is complete control
# How it was run: as §2
# [20] = tested on: Italian ryegrass (Lolium multiflorum); assay: Test A postemergence, visual injury rating; settings: 0 is no effect, 100 is complete control
# How it was run: as §2
# [21] = 31 g ai/ha, 0 to 100 scale, 0 no effect, 100 complete control
# [22] = 31 g ai/ha, 0 to 100 scale, approximately 10 days
smiles,measurement,setting,value
CC(=O)c1c(Br)cccc1Oc1ncc(Cl)cn1 [Compound 12],"Plant response rating, Ducksalad",[1],0
same,"Plant response rating, Rice",[2],0
same,"Plant response rating, Barnyardgrass",[3],0
same,"Plant response rating, Sedge, Umbrella",[4],0
same,Kochia plant response rating,[5]; 1000 g ai/ha,0
same,Pigweed plant response rating,[6]; 1000 g ai/ha,100
same,"Foxtail, Giant plant response rating",[7]; 1000 g ai/ha,100
same,Barnyardgrass plant response rating,[8]; 1000 g ai/ha,80
same,Ragweed plant response rating,[9]; 1000 g ai/ha,80
same,"Ryegrass, Italian plant response rating",[10]; 1000 g ai/ha,40
same,Kochia plant response rating (0 to 100 scale),[11]; 1000 g ai/ha,80
same,Pigweed plant response rating (0 to 100 scale),[12]; 1000 g ai/ha,100
same,Galium plant response rating (0 to 100 scale),[13]; 1000 g ai/ha,80
same,Blackgrass plant response rating (0 to 100 scale),[14]; 1000 g ai/ha,50
same,"Foxtail, Giant plant response rating (0 to 100 scale)",[15]; 1000 g ai/ha,70
same,Barnyardgrass plant response rating (0 to 100 scale),[16]; 1000 g ai/ha,80
same,Wheat plant response rating (0 to 100 scale),[17]; 1000 g ai/ha,0
same,Ragweed plant response rating (0 to 100 scale),[18]; 1000 g ai/ha,60
same,Corn plant response rating (0 to 100 scale),[19]; 1000 g ai/ha,20
same,"Ryegrass, Italian plant response rating (0 to 100 scale)",[20]; 1000 g ai/ha,50
CC(CN(C)C(=O)c1c(Br)cccc1Oc1ncc(Cl)cn1)C(F)(F)F (centres unmarked) [Compound 18],"Plant response rating, Ducksalad",[1],0
same,"Plant response rating, Rice",[2],0
same,"Plant response rating, Barnyardgrass",[3],0
same,"Plant response rating, Sedge, Umbrella",[4],0
same,Kochia plant response rating,[5]; 125 g ai/ha,0
same,Kochia plant response rating,[5]; 500 g ai/ha,10
same,Pigweed plant response rating,[6]; 125 g ai/ha,10
same,Pigweed plant response rating,[6]; 500 g ai/ha,40
same,"Foxtail, Giant plant response rating",[7]; 125 g ai/ha,0
same,"Foxtail, Giant plant response rating",[7]; 500 g ai/ha,0
same,Barnyardgrass plant response rating,[8]; 125 g ai/ha,0
same,Barnyardgrass plant response rating,[8]; 500 g ai/ha,0
same,Ragweed plant response rating,[9]; 125 g ai/ha,0
same,Ragweed plant response rating,[9]; 500 g ai/ha,0
same,"Ryegrass, Italian plant response rating",[10]; 125 g ai/ha,0
same,"Ryegrass, Italian plant response rating",[10]; 500 g ai/ha,0
same,Kochia plant response rating (0 to 100 scale),[11]; 125 g ai/ha,0
same,Kochia plant response rating (0 to 100 scale),[11]; 500 g ai/ha,10
same,Pigweed plant response rating (0 to 100 scale),[12]; 125 g ai/ha,10
same,Pigweed plant response rating (0 to 100 scale),[12]; 500 g ai/ha,20
same,Galium plant response rating (0 to 100 scale),[13]; 125 g ai/ha,0
same,Galium plant response rating (0 to 100 scale),[13]; 500 g ai/ha,0
same,Blackgrass plant response rating (0 to 100 scale),[14]; 125 g ai/ha,0
same,Blackgrass plant response rating (0 to 100 scale),[14]; 500 g ai/ha,0
same,"Foxtail, Giant plant response rating (0 to 100 scale)",[15]; 125 g ai/ha,0
same,"Foxtail, Giant plant response rating (0 to 100 scale)",[15]; 500 g ai/ha,0
same,Barnyardgrass plant response rating (0 to 100 scale),[16]; 125 g ai/ha,0
same,Barnyardgrass plant response rating (0 to 100 scale),[16]; 500 g ai/ha,0
same,Wheat plant response rating (0 to 100 scale),[17]; 125 g ai/ha,0
same,Wheat plant response rating (0 to 100 scale),[17]; 500 g ai/ha,0
same,Ragweed plant response rating (0 to 100 scale),[18]; 125 g ai/ha,0
same,Ragweed plant response rating (0 to 100 scale),[18]; 500 g ai/ha,0
same,Corn plant response rating (0 to 100 scale),[19]; 125 g ai/ha,0
same,Corn plant response rating (0 to 100 scale),[19]; 500 g ai/ha,0
same,"Ryegrass, Italian plant response rating (0 to 100 scale)",[20]; 125 g ai/ha,0
same,"Ryegrass, Italian plant response rating (0 to 100 scale)",[20]; 500 g ai/ha,0
CN(CCC(F)(F)F)C(=O)c1c(Br)cccc1Oc1ncc(Cl)cn1 [Compound 19],"Plant response rating, Ducksalad",[1],0
same,"Plant response rating, Rice",[2],0
same,"Plant response rating, Barnyardgrass",[3],0
same,"Plant response rating, Sedge, Umbrella",[4],0
same,"Plant response rating, Kochia",[5]; [21],0
same,Kochia plant response rating,[5]; 125 g ai/ha,20
same,"Plant response rating, Pigweed",[6]; [21],0
same,Pigweed plant response rating,[6]; 125 g ai/ha,20
same,"Plant response rating, Foxtail, Giant",[7]; [21],0
same,"Foxtail, Giant plant response rating",[7]; 125 g ai/ha,0
same,"Plant response rating, Barnyardgrass",[8]; [21],0
same,Barnyardgrass plant response rating,[8]; 125 g ai/ha,0
same,"Plant response rating, Ragweed",[9]; [21],0
same,Ragweed plant response rating,[9]; 125 g ai/ha,0
same,"Plant response rating, Ryegrass, Italian",[10]; [21],0
same,"Ryegrass, Italian plant response rating",[10]; 125 g ai/ha,0
same,Kochia plant response rating,[11]; [22],0
same,Kochia plant response rating (0 to 100 scale),[11]; 125 g ai/ha,0
same,Pigweed plant response rating,[12]; [22],10
same,Pigweed plant response rating (0 to 100 scale),[12]; 125 g ai/ha,10
same,Galium plant response rating,[13]; [22],0
same,Galium plant response rating (0 to 100 scale),[13]; 125 g ai/ha,0
same,Blackgrass plant response rating,[14]; [22],0
same,Blackgrass plant response rating (0 to 100 scale),[14]; 125 g ai/ha,0
same,"Foxtail, Giant plant response rating",[15]; [22],0
same,"Foxtail, Giant plant response rating (0 to 100 scale)",[15]; 125 g ai/ha,0
same,Barnyardgrass plant response rating,[16]; [22],0
same,Barnyardgrass plant response rating (0 to 100 scale),[16]; 125 g ai/ha,0
same,Wheat plant response rating,[17]; [22],0
same,Wheat plant response rating (0 to 100 scale),[17]; 125 g ai/ha,0
same,Ragweed plant response rating,[18]; [22],0
same,Ragweed plant response rating (0 to 100 scale),[18]; 125 g ai/ha,0
same,Corn plant response rating,[19]; [22],0
same,Corn plant response rating (0 to 100 scale),[19]; 125 g ai/ha,0
same,"Ryegrass, Italian plant response rating",[20]; [22],0
same,"Ryegrass, Italian plant response rating (0 to 100 scale)",[20]; 125 g ai/ha,0
CN(OCC(F)(F)F)C(=O)c1c(Br)cccc1Oc1ncc(Br)cn1 [Compound 24],"Plant response rating, Ducksalad",[1],0
same,"Plant response rating, Rice",[2],0
same,"Plant response rating, Barnyardgrass",[3],0
same,"Plant response rating, Sedge, Umbrella",[4],0
same,Kochia plant response rating,[5]; 125 g ai/ha,0
same,Kochia plant response rating,[5]; 500 g ai/ha,0
same,Pigweed plant response rating,[6]; 125 g ai/ha,0
same,Pigweed plant response rating,[6]; 500 g ai/ha,90
same,"Foxtail, Giant plant response rating",[7]; 125 g ai/ha,0
same,"Foxtail, Giant plant response rating",[7]; 500 g ai/ha,20
same,Barnyardgrass plant response rating,[8]; 125 g ai/ha,0
same,Barnyardgrass plant response rating,[8]; 500 g ai/ha,30
same,Ragweed plant response rating,[9]; 125 g ai/ha,0
same,Ragweed plant response rating,[9]; 500 g ai/ha,0
same,"Ryegrass, Italian plant response rating",[10]; 125 g ai/ha,0
same,"Ryegrass, Italian plant response rating",[10]; 500 g ai/ha,0
same,Kochia plant response rating (0 to 100 scale),[11]; 125 g ai/ha,0
same,Kochia plant response rating (0 to 100 scale),[11]; 500 g ai/ha,0
same,Pigweed plant response rating (0 to 100 scale),[12]; 125 g ai/ha,0
same,Pigweed plant response rating (0 to 100 scale),[12]; 500 g ai/ha,10
same,Galium plant response rating (0 to 100 scale),[13]; 125 g ai/ha,10
same,Galium plant response rating (0 to 100 scale),[13]; 500 g ai/ha,20
same,Blackgrass plant response rating (0 to 100 scale),[14]; 125 g ai/ha,0
same,Blackgrass plant response rating (0 to 100 scale),[14]; 500 g ai/ha,0
same,"Foxtail, Giant plant response rating (0 to 100 scale)",[15]; 125 g ai/ha,0
same,"Foxtail, Giant plant response rating (0 to 100 scale)",[15]; 500 g ai/ha,0
same,Barnyardgrass plant response rating (0 to 100 scale),[16]; 125 g ai/ha,0
same,Barnyardgrass plant response rating (0 to 100 scale),[16]; 500 g ai/ha,10
same,Wheat plant response rating (0 to 100 scale),[17]; 125 g ai/ha,0
same,Wheat plant response rating (0 to 100 scale),[17]; 500 g ai/ha,0
same,Ragweed plant response rating (0 to 100 scale),[18]; 125 g ai/ha,0
same,Ragweed plant response rating (0 to 100 scale),[18]; 500 g ai/ha,0
same,Corn plant response rating (0 to 100 scale),[19]; 125 g ai/ha,0
same,Corn plant response rating (0 to 100 scale),[19]; 500 g ai/ha,0
same,"Ryegrass, Italian plant response rating (0 to 100 scale)",[20]; 125 g ai/ha,0
same,"Ryegrass, Italian plant response rating (0 to 100 scale)",[20]; 500 g ai/ha,0
